According to article PMC9570328, “Spatial Structure of NanoFAST in the Apo State and in Complex with its Fluorogen HBR-DOM2” (International Journal of Molecular Sciences, 2022):

How the values were obtained:
nanoFAST [1] = target: T1, nanoFAST (Halorhodospira halophila, UniProt P16113, C69G/Y94W/T95M/F96I/D97P/Y98T/Q99S/M100R); experiment: fluorescence titration; weak binding, seen only at […] protein
T1 construct: gene pyp; nanoFAST: FAST lacking the first 26 residues (98 amino acids); engineered variant of PYP
T1 sequence (P16113 27-125 C69G/Y94W/T95M/F96I/D97P/Y98T/Q99S/M100R): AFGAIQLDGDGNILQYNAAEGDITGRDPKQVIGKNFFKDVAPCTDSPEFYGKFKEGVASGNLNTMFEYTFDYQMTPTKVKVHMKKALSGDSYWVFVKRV

nanoFAST [2] = target: T1, nanoFAST; experiment: solution NMR structure of the complex, […] intermolecular NOE distances; assay type: binding; details: cited from earlier work
FAST = target: T2, FAST (Halorhodospira halophila, UniProt P16113, C69G/D97P/F96I/M100R/Q99S/T95M/Y94W/Y98T); experiment: spectrofluorometric titration (Table S1); assay type: binding
T2 construct: gene pyp; full-length FAST (engineered variant of PYP)
T2 sequence (P16113 whole entry C69G/Y94W/T95M/F96I/D97P/Y98T/Q99S/M100R): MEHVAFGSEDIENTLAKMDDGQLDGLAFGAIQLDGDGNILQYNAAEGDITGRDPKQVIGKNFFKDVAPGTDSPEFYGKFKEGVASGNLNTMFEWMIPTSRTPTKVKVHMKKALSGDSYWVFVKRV

SMILES: COc1cc(O)ccc1/C=C1N=C(/C=C/c2ccncc2)N(C)C\1=O [N871b]
- fluorescence titration; weak binding, seen only at ~100 μM protein (nanoFAST [1]): N871b is bright when bound to nanoFAST, but its binding affinity is extremely weak

SMILES: COc1cc(/C=C2\SC(=S)NC2=O)c(OC)cc1O [HBR-DOM2]
- Kd (nanoFAST [2]): 850 nM

SMILES: COc1cc(/C=C2\N=C(C)N(C)C2=O)c(OC)cc1O [N1036]
- Kd (FAST): 710 nM

SMILES: COc1cc(/C=C2N=C(/C=C/c3ccncc3)N(C)C\2=O)c(OC)cc1O [N1048]
- Kd (FAST): 150 nM
